The values that follow come from patent publication US11311576B2, “Methods of use for CAR T cells” (Seattle Children's Hospital, priority 2018, dated 2022).

Assay [1] addresses T1, FRβ (CHO-b) (Homo sapiens, UniProt P14207).
T1 construct: expressed in transfected cells; host or cells: CHO (Chinese hamster ovary) cells
Kind of assay: 3H-EC17 cell-based radioligand binding assay, CHO-β cells. Particulars: 2 h at 37° C. As to the method: The bispecific affinities of EC17 CAM were assessed using ^3H-EC17 in cell-based radioligand binding assays. For binding to FR+ targets, KB and CHO-β cells were pre-seeded overnight in 24-well tissue culture plates and incubated with 0.1, 0.5, 1, 5, 10, 20, and 40 nM of ^3H-EC17 in FFRPMI for 2 h at 37° C. Afterwards, the cells were rinsed with phosphate-buffered saline (PBS, pH 7.4) and lysed with 1% sodium dodecylsulfate. The whole cell lysates were quantitated for the level of radioactivity and cellular protein content by standard Pierce BCA protein assay. The number of ^3H-EC17 molecules bound per cell was calculated to determine the dissociation constants (Kd) for FRα (KB) and FRβ (CHO-b) respectively (FIG. 56A, FIG. 56B).

Assay [2] can be described thus: EC17/E2-CAR T-cell therapy in naïve NSG mice without tumor. The note with it: 10 million E2 CAR-T cells, EC17 500 nmol/kg x2 doses. In kind it is in vivo. On the procedure:
EGFRt-sorted anti-FITC E2 scFv-CAR T cells were frozen in a T-cell freezing medium. Vials of frozen CAR-T cells were immediately stored at −80° C. The CAR-T cells were quickly thawed at 37° C., washed twice with PBS, and used for animal injection at 10 million viable EGFRt+E2 CAR-T cells (CD4/CD8 at ˜1:1) per animal. A small aliquot was taken on the day infusion for flow cytometric analysis of E2-CAR T-cell phenotypes.
Mouse blood samples were processed for plasma and stored at −20° C. until use. A human TH1 cytokine panel (Biolegend, Cat. No. 740009) and a human hematopoietic stem cell cytokine panel (Biolegend, Cat. No. 740610) was used to detect human cytokines in the mouse blood. […]
Whole blood cell analysis: Plasma was removed from predetermined volumes of whole EDTA treated blood and RBCs were lysed with RBC lysis solution. […] Determination of the concentration of CAR T cells in each blood sample was calculated according to Invitrogen's instructions. CAR T cells were identified as human CD3ε+ EGFRt+ events and easily distinguished and counted using the Kaluza™ flow cytometry software. The number of CAR T cells in the circulation of each infused mouse was then represented on the graphs as the total number of CAR T cells per 100 μL of whole blood analyzed. Statistical significance was determined by utilizing an unpaired, two-tailed, students t30 test with significance set at p<0.05. […]

The test system of assay [3] is KB. As to the kind of experiment: EC17 dose response, specific lysis in co-culture with E2-CAR-T cells (LDH assay). The format is cell-based, human. The note with it: 24 hours co-culture. On the procedure: (§1) After 24 hours of co-culture, supernatants were harvested to determine tumor cell killing. To study the kinetics of T cell activation and FR correlation in vitro (FIG. 60A, FIG. 60B, FIG. 60C, FIG. 60D, FIG. 60E), co-cultures were carried out in FR+/− cell lines at varying E/T ratios (1:27, 1:9, 1:3, 1:1, 3:1) in the continuous presence of 10 nM EC17. The kinetics of tumor cell killing were quantified after 16 and 48 hours of co-culture. Meanwhile, a portion of the supernatants was taken after 44 hours of co-culture for measurement of IFNg, IL-2 and TNFα. Using Promega's CytoTox 96® LDH assay kit, target cell killing was quantified and expressed as specific lysis (%) which was normalized to basal levels in the absence of EC17 at defined E/T ratios. The LEGENDplex™ human Th1 cytokine panel (BioLegend, San Diego, Calif.) was used to determine CAR-T cell derived cytokines.
(§2) To study the robustness of CAR-T cell activation, 5 FR+ cell lines (KB, MDA-MB-231, HOS-FRα, THP1-FRβ, OV90) were used along with a wide range of EC17 concentration (0.1 pM to 100 μM) at an E/T ratio of 1:1 (FIG. 59A, FIG. 59B). Specific lysis (%) was quantified by Promega's LDH cytotoxicity assay kit after 24 hours of co25 culture. In all cell lines, EC17-dependent cytolysis followed a bell-shaped dose response with a somewhat broad concentration plateau (˜0.1 nM to […]) (FIG. 59A). […] However, maximal lysis obtained for each cell line ranked differently at 45% (MDA-MB-231), 27% (THP1-FRb), 18% (HOS-FRα), 15% (OV90) and 11% (KB) (FIG. 59B).

The subject of assay [4] is MDA-MB-231. Described as above. In kind it is cell-based, human. The note with it: 24 hours co-culture. As to the method: as §1, §2
The subject of assay [5] is HOS-FRα. The assay is described as above. The format is cell-based, human. The note with it: 24 hours co-culture. As to the method:
as §1, §2

Assay [6] relates to OV90. Described as above. The format is cell-based, human. The note with it: 24 hours co-culture. As to the method: as §1, §2
Assay [7] concerns THP1-FRβ. The description is as above. In kind it is cell-based, human. Particulars: 24 hours co-culture. As to the method: as §1, §2
Setting [8] is: Homo sapiens, EC17, E/T 1:1, curve fitted up to 100 nM, read-out: half-maximal effective concentration (EC50), specific lysis.

T1 sequence (P14207 17-230): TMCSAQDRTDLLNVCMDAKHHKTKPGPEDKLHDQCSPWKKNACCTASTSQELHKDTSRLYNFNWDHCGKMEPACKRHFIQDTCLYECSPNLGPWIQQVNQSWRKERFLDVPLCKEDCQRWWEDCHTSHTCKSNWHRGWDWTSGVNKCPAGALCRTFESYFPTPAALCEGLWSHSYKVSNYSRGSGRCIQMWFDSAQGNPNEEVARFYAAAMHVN

Turning to `NC1=NC2N=CC(CNc3ccc(C(=O)N[C@@H](CCC(=O)NCCNC(=S)Nc4ccc(-c5c6ccc(=O)cc-6oc6cc(O)ccc56)c(C(=O)O)c4)C(=O)O)cc3)=NC2C(=O)N1` (stereo partly drawn) [EC17, FA-(g)-ethylenediamine-FITC], the Kd in assay [1] worked out at 0.8 nM. Besides, the “IFN-g production, difference between tumor-free and MDA-MB-231 tumor-bearing mice” value in assay [2] stood at 23 fold. Further, the maximal lysis in assay [3] (E/T 1:1) was determined as 11%; in assay [4] (E/T 1:1) it was 45%; in assay [5] (E/T 1:1) it was 18%; in assay [6] (E/T 1:1), 15%; in assay [7] (E/T 1:1) it was 27%. The EC50 in assay [3] (Homo sapiens, KB, E/T 1:1, curve fitted up to 100 nM, read-out: half-maximal effective concentration (EC50), specific lysis) is 0.0053 nM; in assay [4] (Homo sapiens, MDA-MB-231, E/T 1:1, curve fitted up to 100 nM, read-out: half-maximal effective concentration (EC50), specific lysis), 0.0045 nM; in assay [5] (setting [8]), 0.03 nM; in assay [6] (Homo sapiens, OV-90, E/T 1:1, curve fitted up to 100 nM, read-out: half-maximal effective concentration (EC50), specific lysis), 0.418 nM; in assay [7] (setting [8]) it was 0.015 nM.

Usually Kd stands for the concentration at which binding is half-saturated.
